Measured values from patent publication US12172975B2, “1H-indazole carboxamides as receptor-interacting protein kinase 1 inhibitors (RIPK1)” (BRISTOL-MYERS SQUIBB COMPANY, priority 2018, dated 2024).
Like-named read-outs stand apart in the source and are kept apart here.

Tested on: MLKL phosphorylation in HT29-L23 human colorectal adenocarcinoma cells
Assay: MLKL Phosphorylation High-Content Assay
Format: cell-based
Settings: necroptosis induced with TNFα, SMAC mimetic and Z-VAD, 6 h, read-out: pMLKL (IC50)
Protocol: MLKL Phosphorylation High-Content Assay
HT29-L23 human colorectal adenocarcinoma cells were maintained in RPMI 1640 medium containing 10% heat-inactivated FBS, 1% Penicillin-Streptomycin and 10 mM HEPES. Cells were seeded at 2,000 cells/well in 384 well tissue culture-treated microplates (Greiner #781090-3B) and incubated at 37° C. (5% CO2/95% O2) for 2 d. […] (5% CO2/95% O2). Necroptopsis was induced using a mixture of human TNFα (35 ng/mL) (Peprotech #300-01A), SMAC mimetic (from US 2015/0322111 A1) (700 nM) and Z-VAD ([…]) (BD pharmingen #51-6936). Following 6 h incubation at 37° C. (5% CO2/95% O2), the cells were fixed with 4% formaldehyde (ACROS 11969-0010) for 15 min at rt, then permeabilized with phosphate buffered saline (PBS) containing 0.2% Triton-X-100 for 10 min. MLKL phosphorylation was detected using anti-MLKL (phospho S358) antibody (Abeam #ab 187091) (1:1000 dilution in Blocking Buffer [PBS supplemented with 0.1% BSA]) with ON incubation at 4° C. After washing three times in PBS, goat anti-rabbit Alexa-488 (1:1000 dilution) (Life Technologies, A11008) and Hoechst 33342 (Life Technologies, H3570) (1:2000 dilution) in Blocking Buffer were added for 1 h at rt.
Following another three cycles of washes in PBS, the microplates were sealed, and cellular images were acquired in the Cellomics ArrayScan VTI high-content imager equipped with an X1 camera. Fluorescent images were taken using a 10× objective and the 386-23 BGRFRN_BGRFRN and 485-20 BGRFRN_BGRFRN filter sets, for nuclei and MLKL phosphorylation, respectively. The image sets were analyzed using the Compartmental Analysis Bioapplication software (Cellomics). The level of MLKL phosphorylation was quantified as MEAN_CircRingAvglntenRatio. The maximal inhibitory response was defined by the activity induced by Neels (CAS #: 852391-15-2, 6.25 μM). […] The data were fitted using the 4-parameter logistic equation to calculate the IC50 and Ymax values.

Structure (SMILES)	IC50 [nM]	IC50 (Homo sapiens) [nM]
CNC(=O)c1n[nH]c2cc(-c3cnc(OC)c(C(=O)NCC4CC4c4cccc(F)c4)c3)ccc12 (centres unmarked) [Example 48, 6-[5-({[2-(3-fluorophenyl)-cyclopropyl]methyl}carbamoyl)-6-methoxypyridin-3-yl]-N-methyl-1H-indazole-3-carbox-amide]	176	
CNC(=O)c1n[nH]c2cc(-c3cnc(OC)c(C(=O)NCC4CC4c4cccc(F)c4)c3)ccc12 (centres unmarked) [Example 49, 6-[5-({[2-(3-fluorophenyl)-cyclopropyl]methyl}carbamoyl)-6-methoxypyridin-3-yl]-N-methyl-1H-indazole-3-carbox-amide]	21	
CNC(=O)c1n[nH]c2cc(-c3cnc(OC)c(C(=O)NCc4ccccc4N4CCC(CO)CC4)c3)ccc12 [Example 57, 6-{5-[({2-[4-(hydroxymethyl)-piperidin-1-yl]phenyl}methyl)-carbamoyl]-6-methoxypyridin-3-yl}-N-methyl-1H-indazole-3-carboxamide]		110
CNC(=O)c1n[nH]c2cc(-c3cnc(OC)c(C(=O)NCc4ccccc4OC)c3)ccc12 [Example 58, 6-(6-methoxy-5-{[(2-methoxy-phenyl)methyl]carbamoyl}-pyridin-3-yl)-N-methyl-1H-indazole-3-carboxamide]		5.6
CNC(=O)c1n[nH]c2cc(-c3cnc(OC)c(C(=O)NCCCOC(C)(C)C)c3)ccc12 [Example 60, 6-(5-{[3-(tert-butoxy)propyl]-carbamoyl}-6-methoxypyridin-3-yl)-N-methyl-1H-indazole-3-carboxamide]		16
CNC(=O)c1n[nH]c2cc(-c3cnc(OC)c(C(=O)NCCCOC4CCCCO4)c3)ccc12 (centres unmarked) [Example 61, 6-(6-methoxy-5-{[3-(oxan-2-yloxy)propyl]carbamoyl}-pyridin-3-yl)-N-methyl-1H-indazole-3-carboxamide]		28
CNC(=O)c1n[nH]c2cc(-c3cnc(OC)c(C(=O)N[C@H]4CC[C@@H](c5ccccc5)C4)c3)ccc12 [Example 67, 6-(6-methoxy-5-{[(1S,3R)-3-phenylcyclopentyl]carbamoyl}-pyridin-3-yl)-N-methyl-1H-indazole-3-carboxamide]		39
CNC(=O)c1[nH]nc2cc(-c3cnc(OC)c(C(=O)NC[C@@H]4C[C@H]4c4ccc(F)cc4)c3)ccc12 [Example 70, 6-[5-({[(1R,2R)-2-(4-fluoro-phenyl)cyclopropyl]methyl}-carbamoyl)-6-methoxypyridin-3-yl]-N-methyl-2H-indazole-3-carboxamide]		36
CCc1ccccc1CNC(=O)c1cc(-c2ccc3c(C(=O)NC)n[nH]c3c2)cnc1OC [Example 82, 6-(5-{[(2-ethylphenyl)methyl]-carbamoyl}-6-methoxy-pyridin-3-yl)-N-methyl-1H-indazole-3-carboxamide]		41
CNC(=O)c1n[nH]c2cc(-c3cnc(OC)c(C(=O)NCc4cc(F)cc(F)c4OC)c3)ccc12 [Example 89, 6-(5-{[(3,5-difluoro-2-methoxy-phenyl)methyl]carbamoyl}-6-methoxy-pyridin-3-yl)-N-methyl-1H-indazole-3-carbox-amide]	85	
CNC(=O)c1n[nH]c2cc(-c3cnc(OC)c(C(=O)NCCCC(=O)OC(C)(C)C)c3)ccc12 [Example 135, tert-butyl 4-({2-methoxy-5-[3-(methylcarbamoyl)-1H-indazol-6-yl]pyridin-3-yl}formamido)-butanoate]		200
CNC(=O)c1n[nH]c2cc(-c3cnc(OC)c(C(=O)N[C@H]4CCN(C(=O)OC(C)(C)C)C4)c3)ccc12 [Example 136, tert-butyl (3S)-3-{2-methoxy-5-[3-(methylcarbamoyl)-1H-indazol-6-yl]pyridine-3-amido}-pyrrolidine-1-carboxylate]		480
CNC(=O)c1n[nH]c2cc(-c3cnc(OC)c(C(=O)N[C@@H](C)CC(=O)OC(C)(C)C)c3)ccc12 [Example 139, tert-butyl (3S)-3-({2-methoxy-5-[3-(methylcarbamoyl)-1H-indazol-6-yl]pyridin-3-yl}-formamido)butanoate]		28
CNC(=O)c1n[nH]c2cc(-c3cnc(OC)c(C(=O)N[C@H](C)CC(=O)OC(C)(C)C)c3)ccc12 [Example 141, tert-butyl (3R)-3-({2-methoxy-5-[3-(methylcarbamoyl)-1H-indazol-6-yl]pyridin-3-yl}-formamido)butanoate]		41
CNC(=O)c1n[nH]c2cc(-c3cnc(OC)c(C(=O)NCCCC(=O)N(CC4CC4)C4CC4)c3)ccc12 [Example 142, 6-[5-({3-[cyclopropyl(cyclo-propylmethyl)carbamoyl]-propyl}carbamoyl)-6-meth-oxypyridin-3-yl]-N-methyl-1H-indazole-3-carboxamide]		120
CNC(=O)c1n[nH]c2cc(-c3cnc(OC)c(C(=O)NCC(C)(C)C(=O)OC(C)(C)C)c3)cc(F)c12 [Example 144, tert-butyl 3-({5-[4-fluoro-3-(methylcarbamoyl)-1H-indazol-6-yl]-2-methoxy-pyridin-3-yl}formamido)-2,2-dimethylpropanoate]		100
CNC(=O)c1n[nH]c2cc(-c3cnc(OC)c(C(=O)NC(C)c4cccc(OC(F)(F)F)c4)c3)cc(F)c12 (centres unmarked) [Example 147, 4-fluoro-6-[6-methoxy-5-({1-[3-(trifluoromethoxy)-phenyl]ethyl}carbamoyl)-pyridin-3-yl]-N-methyl-1H-indazole-3-carboxamide]		110
CNC(=O)c1n[nH]c2cc(-c3cc(C(=O)NCc4cc(OC(F)(F)F)ccc4F)c(OC)nc3C)ccc12 [Example 161, 6-[5-({[2-fluoro-5-(tri-fluoromethoxy)phenyl]-methyl}carbamoyl)-6-methoxy-2-methylpyridin-3-yl]-N-methyl-1H-indazole-3-carboxamide]		74
COc1ncc(-c2ccc3c(C(=O)N[C@H](C)C4CC4)n[nH]c3c2)cc1C(=O)NCc1ccccc1OC(F)(F)F [Example 171, N-[(1R)-1-cyclopropylethyl]-6-[6-methoxy-5-({[2-(trifluoro-methoxy)phenyl]methyl}-carbamoyl)pyridin-3-yl]-1H-indazole-3-carboxamide]		120
COc1ncc(-c2ccc3c(C(=O)NC4CC4)n[nH]c3c2)cc1C(=O)NCc1ccccc1OC(F)(F)F [Example 174, N-cyclopropyl-6-[6-methoxy-5-({[2-(trifluoromethoxy)phenyl]-methyl}carbamoyl)pyridin-3-yl]-1H-indazole-3-carboxamide]		14
COc1ncc(-c2ccc3c(C(=O)NCC(F)(F)F)n[nH]c3c2)cc1C(=O)NCc1ccccc1OC(F)(F)F [Example 178]		120
COc1ncc(-c2ccc3c(C(=O)NC(C)C)n[nH]c3c2)cc1C(=O)NCc1ccccc1OC(F)(F)F [Example 179, 6-[6-methoxy-5-({[2-(trifluoro-methoxy)phenyl]methyl}carbam-oyl)pyridin-3-yl]-N-(propan-2-yl)-1H-indazole-3-carboxamide]		73
[2H]C([2H])([2H])Oc1ncc(-c2ccc3c(C(=O)NC4CC4)n[nH]c3c2)cc1C(=O)NC(C)c1cccc(OC(F)(F)F)c1 (centres unmarked) [Example 197, N-cyclopropyl-6-[6-(deutero)-methoxy-5-({1-[3-(trifluorometh-oxy)phenyl]ethyl}carbamoyl)-pyridin-3-yl]-1H-indazole-3-carboxamide]		52
